Data: patent US7632862B2, “Pharmaceutical compositions that modulate HPTPbeta activity” (Procter & Gamble Company, priority 2002, dated 2009)

Key:
HPTPbeta = target: T1, HPTPbeta (Homo sapiens, UniProt P23467); experiment: Inhibition of recombinant HPTPbeta phosphatase activity (DiFMUP substrate); type: biochemical; details: assay as in Example 2
T1 construct: GST (N, cleaved yes); His6 (C); made in house; host or cells: E. coli BL21-RIL
Experimental: Methods: Expression and purification of recombinant HPTPbeta catalytic domain [SEQ ID NO: 16] is accomplished by subcloning the intracellular domain of HPTPbeta (cDNA clone starting at the codon for amino acid 1662 through the stop codon) into the pGEX4T1 vector (Pharmacia) and expressed as a GST-fusion protein in E. coli BL21-RIL cells (Stratagene). Induced cells are thawed on ice and resuspended in 20 mM Tris-HCl, pH=8.0, 1% Trition x-100, 2 mM DTT and EDTA-free protease inhibitor cocktail. 10 mg/ml lysozyme is added and cells are lysed by sonication. The cell debris is pelleted using the Beckman J2-MI at 17,000 rpm. The supernatant is added to prepared glutathione sepharose 4B resin batch method. After binding, the column is poured and packed with the resin/protein mixture and then washed. […]
Measurements of recombinant phosphatase activity are performed using the substrate DiFMUP (6,8-difluoro-4-methylumbelliferyl phosphate) from Molecular Probes. […] Measurements of increased substrate fluorescence, indicative of phosphatase activity, are observed at an excitation wavelength of 355 nm and an emission wavelength of 460 nm using a Victor V plate reader (Wallac).
Methods: The potency of a class of HPTPbeta inhibitors was optimized by iterative screening for inhibition of HPTPbeta activity measured as described in Example 2. […]

VEGFR2 = experiment: Ligand-induced VEGFR2 phosphorylation in endothelial cells (anti-phosphotyrosine western blot); type: cell-based, human; details: endothelial cells pretreated 30 minutes with 0.1 mM or 1 mM; vs vehicle; p<0.05
Experimental: (§1) VEGFR2 and Tie-2 receptor phosphorylation is assayed by anti-phosphotyrosine western blotting following immunoprecipitation of the receptors from endothelial cells or receptor transfected 293 cells. Briefly, endothelial cells (HUVEC's) are plated on 100 mm dishes, stimulated with a dose range of either recombinant VEGF165 or recombinant Angiopoietin-1 (R&D Systems, resuspended in PBS containing 0.2% bovine serum albumin) for 5 or 7 minutes, respectively. […] Signal is detected using HRP labeled secondary antibodies and ECL solution (Amersham). […] Resulting films are scanned and quantitated using Quantity-One software (Bio-Rad) and results reported as the amount of phosphotyrosine signal over receptor signal (P-Tyr/Receptor).
(§2) Transfection in HUVEC's is performed with the above-mentioned antisense oligos at a 200 nM final concentration using LIPOFECTIN™ (Invitrogen), a reagent for transfectin of endothelial cells and transfection of DNA or RNA into cell lines, in OPTIMEM™-I (Gibco), a modification of Eagles Minimum Essential Medium, buffered with HEPES and sodium bicarbonate (2.4 g/L) and supplemented with hypoxanthine, thymidine, sodium pyruvate, L-glutamine, trace elements, and growth factors, according to the manufacturers instructions. […] Uptake efficiency is monitored in every transfection using a fluorescently labeled oligonucleotide and determined to be >90% in every experiment.” […]

[1] = system: panel of recombinant phosphatases; experiment: Selectivity against a panel of recombinant phosphatases; type: biochemical; details: all panel phosphatases except the closely related HPTPeta
Experimental: FIG. 10. Compound 1 ((R)-[1-Methylcarbamoyl-2-(4-sulfoamino-phenyl)-ethyl]-carbamic acid tert-butyl ester) is a selective HPTPbeta inhibitor. Compound 1 was assayed for inhibition of a panel of recombinant phosphatases essentially as described in Example 2 for HPTPbeta. This compound was at least 10 fold selective for HPTPbeta over the other phosphatases tested except for the closely related HPTPeta.
Methods: The potency of a class of HPTPbeta inhibitors was optimized by iterative screening for inhibition of HPTPbeta activity measured as described in Example 2. […] To determine selectivity, compound 1 was tested against a panel of several other recombinant phosphatases (FIG. 10). VEGFR2 and Tie-2 receptor activation was assayed as mentioned in example 4. However, to assess the effect of the HPTPbeta inhibitor, the cells were pretreated for 30 minutes prior to stimulation with either 0.1 mM or 1 mM Compound 1 in Opti-MEM media (Invitrogen) at 37° C./5% CO2. Results: A potent and selective HPTPbeta inhibitor (Compound 1) was developed (see Example 11) as an agent to enhance the activation of VEGFR2 and Tie2 (FIG. 10). Compound was at least 10 fold selective for HPTPbeta versus the any of the other phosphatases except for the closely related HPTPeta. […] Clearly, these assays could be used to optimize the potency and selectivity and to test the efficacy of other HPTPbeta inhibitors.

[2] = system: Rat thoracic aortic rings; experiment: Rat aortic ring explant angiogenesis assay; details: 100 μM and 300 μM; p<0.05 vs control
Experimental: Methods: The isolated rat aortic ring model of angiogenesis is performed using the thoracic aorta from 150-175 gram, male Sprague-Dawley rats (Charles River). The excised thoracic aorta is placed in sterile saline solution and transferred to endothelial basal media (EBM, Clonetics) containing 1% antibiotics/antimycotic (Gibco BRL). Periadventitial fibroadipose tissue and any visible blood clots were removed. Aortas are cross-sectioned at ˜1 mm intervals and the resulting tissues placed in 100 μl of Dulbecco's Modified Eagle Medium (DMEM) containing 2% FBS, in the presence or absence of adenovirus for green fluorescent protein, empty virus or HPTPbeta (all at 1.0×10^11 virus particles/ml), as described. Rings are incubated for 30 minutes at 37° C. in a humidified incubator under a constant 5% CO2 atmosphere. Following adenoviral infection, aortic rings were washed with EBM and placed in a 24-well tissue culture plate. Aortic rings are overlaid with 450 μl of collagen solution consisting of 8 volumes of 3 mg/ml rat tail collagen (Sigma) in 0.1% acetic acid, 1 volume of 10× M-199 supplemented with 100 mg/ml L-glutamine, and 1 volume of 10× collagen buffer (0.0SN NaOH, 200 mM HEPES, 260 mM NaHCO3). […] Images (TIFF) are taken using a SPOT camera connected to a Nikon inverted microscope and analyzed (vessel extent and area) using automated image analysis software. […]

Tie-2 = experiment: Ligand-induced Tie-2 phosphorylation in endothelial cells (anti-phosphotyrosine western blot); type: cell-based, human; details: endothelial cells pretreated 30 minutes with 0.1 mM or 1 mM; vs vehicle; p<0.05
Experimental: as §1, §2

[3] = system: Human umbilical vein endothelial cells (HUVEC); experiment: Endothelial cell survival (CellTiter-Glo); type: cell-based; details: 500 μM compound
Experimental: Methods: Human umbilical vein endothelial cells (HUVEC, Clonetics) were seeded at 10,000/well in a 96-well plate for 2 hours in EGM media (Clonetics). The cells were then serum-deprived for 2 hours in DMEM (Invitrogen) supplemented with 0.2% bovine serum albumin. Quadruplicate wells were then treated with either vehicle or 500 μM Compound in the presence or absence of either 500 pM recombinant human VEGF165 or 250 ng/mL recombinant human Angiopoietin-1 (Ang-1) (R&D Systems) for 72 hours in DMEM supplemented with 0.2% bovine serum albumin. Cells remaining after incubation were detected using the CellTiter-Glo™ System according to the manufacturers instructions (Promega) and measured using a Victor V plate reader (Perkin Elmer/Wallac).

HEK293H cells = experiment: In-cell phosphatase activity (DiFMUP) in HPTPbeta-transfected HEK293H cells; type: cell-based, human; details: 500 μM, 15 minutes pre-incubation
Experimental: For phosphatase activity in human embryonic kidney cells, HEK293H (Gibco) are grown in suspension in 293SFM media (Gibco) and transfected on 100 mm dishes using LIPOFECTAMINE™ 2000 (Invitrogen), a proprietary formulation for the transfection of nucleic acids (DNA and RNA) into eukaryotic cells. After 24 hours cells are resuspended transferred back to shaker flasks for an additional 24 hours. Phosphatase activity is measured using DiFMUP in 96 well plates as above with 100,000 cells/well. For inhibition of tyrosine phosphatases, the cells are pre-incubated with Bis-maloalto-organovanadium (BMOV) for 15 minutes prior to the addition of DIFMUP. HPTPbeta protein expression is confirmed after each experiment in parallel plates by western blotting.

HUVEC = experiment: In-cell phosphatase activity (DiFMUP) in HPTPbeta adenovirus infected HUVECs; type: cell-based, human; details: 500 μM
Experimental: In cell phosphatase assays are accomplished by infecting Human Umbilical Vein Endothelial Cells with HPTPbeta, GFP, or Empty adenovirus in 100 mm dishes for 24 hours. Infected cells were trypsinized and re-plated at 5,000 cells/well in a 96 well plate and allowed to attach for 2 hours in complete growth medium (EGM). Complete medium was replaced with Hanks Buffered Saline (HBSS, Gibco) and substrate fluorescence are measured 15 minutes after the addition of 100 uM DiFMUP substrate (Molecular Probes) using a Victor V plate reader as mentioned in Example 2.

T1 sequence (P23467 with tags, fused parts or gaps): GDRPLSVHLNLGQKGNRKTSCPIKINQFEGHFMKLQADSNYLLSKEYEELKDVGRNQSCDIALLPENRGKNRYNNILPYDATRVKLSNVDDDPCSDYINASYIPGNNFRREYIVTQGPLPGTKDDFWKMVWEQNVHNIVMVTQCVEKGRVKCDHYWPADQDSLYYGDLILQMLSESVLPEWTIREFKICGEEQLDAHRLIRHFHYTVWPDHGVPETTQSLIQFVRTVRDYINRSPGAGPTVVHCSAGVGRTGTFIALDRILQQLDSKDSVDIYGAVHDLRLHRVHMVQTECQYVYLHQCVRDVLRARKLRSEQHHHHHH

CNC(=O)C(Cc1ccc(NS(=O)(=O)O)cc1)NC(=O)OC(C)(C)C (stereo in doubt) [Compound 1, (R)-[1-Methylcarbamoyl-2-(4-sulfoamino-phenyl)-ethyl]-carbamic acid tert-butyl ester]
potency of inhibition of HPTPbeta activity (HPTPbeta): nanomolar
ligand stimulated tyrosine phosphorylation of VEGFR2 (VEGFR2): increased
selectivity for HPTPbeta over the other phosphatases tested [1]: at least 10 fold
vessel area [2]: significant increases
vessel extent [2]: significant increases
ligand stimulated tyrosine phosphorylation of Tie-2 (Tie-2): increased
cell survival with VEGF165 stimulation ([3]; 500 pM VEGF165, 72 hours, vs vehicle): increased cell survival
cell survival with Ang-1 stimulation ([3]; 250 ng/mL Ang-1, 72 hours, vs vehicle): increased cell survival
basal cell survival ([3]; no ligand, vs untreated controls): increased basal levels of survival

Cc1occc(=O)c1[O-].Cc1occc(=O)c1[O-].[O]=[V+2] [BMOV, Bis-maloalto-organovanadium]
phosphatase activity in HEK293H cells (HEK293H cells): inhibited
phosphatase activity in HUVEC's (HUVEC): inhibited
